Reference: US20250120932A1, “PHARMACEUTICAL COMPOSITION” (NEUROPRO THERAPEUTICS, INC., priority 2021, published 2025)

Key:
[1] = Oral delivery of unformulated Bumetanide Dibenzylamide in Beagle dogs, pharmacokinetics and bioavailability; assay type: in vivo
[2] = Prototype capsule (SEDDS) development: solubilization and dispersion test in water; assay type: physicochemical; conditions: capsule compositions with long chain triglycerides and 0 to 4.68% w/w ethanol
Experimental: Prototype capsule formulations were developed at a less than 2-gram scale. […] The oil phase was then added to the formulations and stirred until the solution became clear. The solutions were cooled to room temperature while stirring and co-solvent was then added (if applicable).
To test if the composition created macro-dispersions or micro-dispersions, about 30 mg of formulation was added into 1.0 g of water and lightly swirled. The resultant dispersion was visually characterized. SEDDS (macroemulsions) are typically characterized as an opaque milky white uniform liquid, and SEDDS (microemulsions) are characterized by a clear, isotropic, transparent solution with opalescence. […] Compositions 4 and 6 were selected for future development work, and the intermediate stability of those compositions was evaluated as described below.

[3] = Solubility in injection vehicle compositions; assay type: physicochemical; conditions: 40% PEG-400, 20% Propylene glycol, 5% Ethanol, 35% water
From the text: Multiple vehicle compositions were investigated, resulting in a clear dosing solution or suspension at the time of the preparation or shortly after the preparation. Vehicles tested included 55% Polyethylene glycol 400 (PEG-400) in water, 41% PEG-400, 12% Ethanol, 47% water, 45% PEG-400, 10% DMSO, 45% Water, 31% PEG-400, 31% Tetraglycol, 15% Caprylocaproyl Polyoxylglycerides (Labrasol ALF), 23% water, 30% PEG-400, 10% N-Methyl Pyrrolidone, 10% DMSO, 50% water, 25% PEG-400, 10% DMSO, 20% Tetraglycol, 45% water, 20% Ethanol in water, 20% Hydroxypropyl-β-Cyclodextrin in water, 11% DMSO, 22% PEG-400, 22% Tetraglycol, 44% water, 44% PEG-400, 0.4% Poloxamer-188, 22% N-Methyl Pyrrolidone, 33% water, and 20% PEG-400, 15% Hydroxypropyl-β-Cyclodextrin in water.
After filtration with a 0.22 μm PVDF filter, the sample stayed clear for up to 7 days. The compositions selected for animal studies are described in Table 67 and Table 68.

SMILES: CCCCNc1cc(C(=O)N(Cc2ccccc2)Cc2ccccc2)cc(S(N)(=O)=O)c1Oc1ccccc1 [Bumetanide Dibenzylamide, N, N-dibenzyl 3-aminosulfonyl-5-butylamino-4-phenoxybenzamide]
- bioavailability ([1]; Beagle, dog, in vivo, 30 mg, oral non-formulated, read-out: Absolute Bioavailability): ~5.1%
- concentration at 0.5 h ([1]; Beagle, dog, plasma, oral, 30 mg/kg, Plasma Bumetanide Dibenzylamide concentration, oral non-formulated 30 mg/kg, 0.5 h): 2.99 ng/mL
- concentration at 4 h ([1]; Beagle, dog, plasma, oral, 30 mg/kg, Plasma Bumetanide Dibenzylamide concentration, oral non-formulated 30 mg/kg, 4 h): 149 ng/mL
- concentration at 6 h ([1]; Beagle, dog, plasma, oral, 30 mg/kg, Plasma Bumetanide Dibenzylamide concentration, oral non-formulated 30 mg/kg, 6 h): 151 ng/mL
- concentration at 8 h ([1]; Beagle, dog, plasma, oral, 30 mg/kg, Plasma Bumetanide Dibenzylamide concentration, oral non-formulated 30 mg/kg, 8 h): 101 ng/mL
- concentration at 12 h ([1]; Beagle, dog, plasma, oral, 30 mg/kg, Plasma Bumetanide Dibenzylamide concentration, oral non-formulated 30 mg/kg, 12 h): 40.1 ng/mL
- Plasma Bumetanide Dibenzylamide concentration ([1]; oral non-formulated 30 mg/kg, 0.5 h): 2.17 ng/mL
- Plasma Bumetanide Dibenzylamide concentration ([1]; oral non-formulated 30 mg/kg, 0.5 h, mean): 2.58 ng/mL
- Plasma Bumetanide Dibenzylamide concentration ([1]; oral non-formulated 30 mg/kg, 4 h): 136 ng/mL
- Plasma Bumetanide Dibenzylamide concentration ([1]; oral non-formulated 30 mg/kg, 4 h, mean): 143 ng/mL
- Plasma Bumetanide Dibenzylamide concentration ([1]; oral non-formulated 30 mg/kg, 6 h): 153 ng/mL
- Plasma Bumetanide Dibenzylamide concentration ([1]; oral non-formulated 30 mg/kg, 6 h, mean): 152 ng/mL
- Plasma Bumetanide Dibenzylamide concentration ([1]; oral non-formulated 30 mg/kg, 8 h): 132 ng/mL
- Plasma Bumetanide Dibenzylamide concentration ([1]; oral non-formulated 30 mg/kg, 8 h, mean): 117 ng/mL
- Plasma Bumetanide Dibenzylamide concentration ([1]; oral non-formulated 30 mg/kg, 12 h): 50.5 ng/mL
- Plasma Bumetanide Dibenzylamide concentration ([1]; oral non-formulated 30 mg/kg, 12 h, mean): 45.3 ng/mL
- maximum solubility of Bumetanide Dibenzylamide [2]: about 1.8 % w/w
- time sample stayed clear after filtration ([3]; 0.22 μm PVDF filter): up to 7 days
- time as clear solution ([3]; room temperature): at least 3 hours
